The source of these data is patent US20150150897A1, “METHODS OF TREATING HEPATITIS C VIRUS INFECTION IN SUBJECTS WITH CIRRHOSIS” (priority 2013, published 2015).

Series [1] in a line: Clinical trials of Compound 1: resistance and tolerability. Type of series: in vivo, human. An excerpt: Compound 1, is also known as “sofosbuvir” or “SOF”.
For series [2] the following is noted: healthy volunteers, cited from earlier work.

With `CC(C)OC(=O)[C@H](C)N[P@](=O)(OC[C@H]1O[C@@H](n2ccc(=O)[nH]c2=O)[C@](C)(F)[C@@H]1O)Oc1ccccc1` [Compound 1, (S)-isopropyl2-(((S)-(((2R,3R,4R,5R)-5-(2,4-dioxo-3,4-dihydrophyrimidin-1(2H)-yl)-4-fluoro-3-hydroxy-4-methyltetrahydrofuran-2-yl)methoxy)(phenoxy)phosphoryl)amino)propanoate], the tolerability result in series [1] is recorded as “well-tolerated”. Besides, in series [2] (co-administration with GS-5885, GS-9669, and GS-5885+GS-9669), the “increases in Compound 1 exposure from co-administration” value is given as “not clinically significant”. For `COC(=O)N[C@H](C(=O)N1CC2(CC2)C[C@H]1c1ncc(-c2ccc3c(c2)C(F)(F)c2cc(-c4ccc5nc([C@@H]6[C@H]7CC[C@H](C7)N6C(=O)[C@@H](NC(=O)OC)C(C)C)[nH]c5c4)ccc2-3)[nH]1)C(C)C` [GS-5885], in series [2], the “exposure on concurrent administration of Compound 1” value is “unaffected”. For the compound `COC[C@H]1C[C@@H](c2ncc(-c3ccc4c(c3)COc3cc5c(ccc6nc([C@@H]7CC[C@H](C)N7C(=O)[C@@H](NC(=O)OC)C(C)C)[nH]c65)cc3-4)[nH]2)N(C(=O)[C@H](NC(=O)OC)c2ccccc2)C1` [GS-9669], in series [2], the “exposure on concurrent administration of Compound 1” value is on record as “unaffected”.
